Data on 30 compounds can be found in ChEMBL document CHEMBL5244257, “The role of imidazole and benzimidazole heterocycles in Chagas disease: A review” (Eur J Med Chem, 2020).

Assay [1] has as its system Trypanosoma cruzi. Description: Antitrypanosomal activity against Trypanosoma cruzi epimastigotes. In kind it is functional, organism-based.
In assay [2] the test system is Trypanosoma cruzi. Briefly: Antitrypanosomal activity against bloodstream form of Trypanosoma cruzi Y […] measured after 24 hrs by giemsa staining based microscopic analysis. In kind it is functional, organism-based.
Assay [3] deals with Trypanosoma cruzi. Briefly: Antitrypanosomal activity against of Trypanosoma cruzi Y trypomastigotes measured after 48 hrs by giemsa staining based microscopic analysis. In kind it is functional, organism-based.
The test system of assay [4] is Trypanosoma cruzi. Briefly: Antitrypanosomal activity against Trypanosoma cruzi trypomastigotes. In kind it is functional, organism-based.
Assay [5] relates to Trypanosoma cruzi. Description: Inhibition of Trypanosoma cruzi assessed as inhibition of parasite growth at 100 uM relative to control. In kind it is functional.
Assay [6] relates to Trypanosoma cruzi. Briefly: Antitrypanosomal activity against Trypanosoma cruzi Tulahuen strain trypomastigotes infected in human MRC5 cells measured after 7 days. Format: functional, organism-based. Conditions: MRC5, 168 h.
In assay [7] the target is T1, Cruzipain (Trypanosoma cruzi, UniProt P25779). Briefly: Inhibition of Trypanosoma cruzi Tulahuen 2 Cruzain using Z-Phe-Arg-AMC as flurogenic substrate at 100 uM by spectrophotometry based analysis relative to control.
T1 sequence (P25779 whole entry): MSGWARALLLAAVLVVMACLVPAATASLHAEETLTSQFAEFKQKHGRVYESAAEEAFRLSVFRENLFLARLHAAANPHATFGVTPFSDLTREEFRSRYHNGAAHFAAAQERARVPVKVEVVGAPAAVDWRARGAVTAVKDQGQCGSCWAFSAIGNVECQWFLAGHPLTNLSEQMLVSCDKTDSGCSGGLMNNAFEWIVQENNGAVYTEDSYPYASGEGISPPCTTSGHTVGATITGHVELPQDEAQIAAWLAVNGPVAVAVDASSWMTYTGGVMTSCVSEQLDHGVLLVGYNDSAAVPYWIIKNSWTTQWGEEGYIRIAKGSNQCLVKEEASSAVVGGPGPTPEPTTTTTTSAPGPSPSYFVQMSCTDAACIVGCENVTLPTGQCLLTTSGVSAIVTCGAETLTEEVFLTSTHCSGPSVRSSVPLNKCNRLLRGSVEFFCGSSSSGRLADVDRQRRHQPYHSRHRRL
For assay [8], the system named is Trypanosoma cruzi. Briefly: Antitrypanosomal activity against Trypanosoma cruzi Tulahuen 2 epimastigotes measured after 5 days. The settings on record: Tulahuen 2, 120 h. Format: functional, organism-based.
For assay [9], the target named is T1, Cruzipain. Description: Inhibition of Trypanosoma cruzi Cruzain.
Assay [10] deals with Trypanosoma cruzi. Description: Antiparasitic activity against Trypanosoma cruzi Tulahuen strain amastigotes. Format: functional, organism-based.
Assay [11] concerns Trypanosoma cruzi. Briefly: Antitrypanosomal activity against Trypanosoma cruzi IRHOD/CO/2008/SN3 epimastigotes. In kind it is functional, organism-based.
Assay [12] in a line: Inhibition of Trypanosoma cruzi epimastigotes Fe-SOD by Bradford method.
Assay [13] deals with Trypanosoma cruzi. Description: Antitrypanosomal activity against Trypanosoma cruzi Y strain amastigotes incubated for 24 hrs by microscopy analysis. Format: functional, organism-based.
Assay [14] relates to Trypanosoma cruzi. Description: Trypanocidal activity against Trypanosoma cruzi trypomastigotes. In kind it is functional, organism-based.
Assay [15] has as its system Trypanosoma cruzi. Briefly: Antitrypanosomal activity against Trypanosoma cruzi Tulahuen LacZ amastigotes infected in human HFF-1 cells incubated for 120 hrs. The settings on record: HFF-1, 120 h. In kind it is functional, organism-based.
Assay [16] deals with T1, Cruzipain. Description: Inhibition of Trypanosoma cruzi Cruzain using Z-Phe-Arg-AMC as flurogenic substrate.
For assay [17], the system named is Trypanosoma cruzi. Briefly: Inhibition of Trypanosoma cruzi TIM at 100 uM relative to control.
The subject of assay [18] is Trypanosoma cruzi. Briefly: Antitrypanosomal activity against Trypanosoma cruzi Y strain trypomastigotes infected in Swiss albino mouse incubated for 24 hrs. In kind it is functional, organism-based.
The test system of assay [19] is Trypanosoma cruzi. Briefly: Antitrypanosomal activity against of Trypanosoma cruzi Tulahuen strain amastigotes infected in mouse 3T3 cells by alamar blue staining based analysis. Format: functional, organism-based. The settings on record: NIH3T3. In general terms: Alamar Blue is a resazurin reagent that responds to reducing activity.
A short description of assay [20]: Inhibition of Trypanosoma cruzi TIM.
The test system of assay [21] is Trypanosoma cruzi. Briefly: Antitrypanosomal activity against of Trypanosoma cruzi amastigotes. Format: functional, organism-based.

The term IC50 denotes the concentration at which inhibition is half-maximal. Read a high IC50 as weaker potency in that assay. `COc1ccc(O)c(-c2nc(C)c(C)[nH]2)c1` yielded an IC50 in the assay with Trypanosoma cruzi [1] of 10700 nM.

With `c1ccc2c(c1)cnn1c[n+](C3CCCCC3)c(NC3CCCCC3)c21`, in the assay with Trypanosoma cruzi [1], the IC50 turned out to be 1140 nM. Consider `C=C(c1ccccc1OCc1cccc(Cl)c1)n1ccnc1` [CROCONAZOLE], for which the IC50 turned out to be 24000 nM with Trypanosoma cruzi [2] and 16000 nM in the assay with Trypanosoma cruzi [3]. For the compound `Cn1c([N+](=O)[O-])cnc1-c1c(-c2ccccc2)nc(-c2ccc(Br)cc2)n1O`, in the assay with Trypanosoma cruzi [4], the IC50 was determined as 23900 nM. As usually defined, the inhibition is the share of the control response that was lost under treatment. Take `CCOC(=O)c1nc2ccc([N+](=O)[O-])cc2n1OC(=O)OC(C)(C)C`: the inhibition at 100 µM with Trypanosoma cruzi [5] stood at 61%. In the assay on Trypanosoma cruzi [6], `Brc1ccc(-c2c[nH]c(-c3ccccn3)n2)cc1` registered an IC50 of 1200 nM.

`CCCCn1c(-c2ccc(Br)cc2)nc2ccccc21`: the IC50 against Cruzipain [7] was 55000 nM; with Trypanosoma cruzi [8], 13300 nM. In the case of `Cc1ccc2[nH]c(CCNC(=O)COc3ccc4ccccc4c3Br)nc2c1`, inhibition against Cruzipain [9] was half-maximal at 610 nM (IC50). On to `CC(C)c1cccc(C(C)C)c1-n1cc[n+](-c2c(C(C)C)cccc2C(C)C)c1`, for which, in the assay on Trypanosoma cruzi [1], the IC50 turned out to be 1100 nM. In the assay with Trypanosoma cruzi [10], `O=C(N[C@@H](Cn1ccnc1)c1ccc(-c2ccc(F)cc2)cc1F)c1ccc(-c2nnc(-c3ccccc3)o2)cc1` displayed a concentration for half-maximal inhibition (IC50) of 0.8 nM. Consider `Oc1cccc2c(NCCc3c[nH]cn3)nnc(Cl)c12`, for which the IC50 came to 8500 nM in the assay on Trypanosoma cruzi [11] and 27000 nM in [12]. On to `O=C(N[C@@H](Cn1ccnc1)c1ccc(Cl)cc1Cl)c1ccc(-c2nnc(-c3ccccc3)o2)cc1`, for which the IC50 in the assay with Trypanosoma cruzi [4] worked out at 11000 nM; in the assay with Trypanosoma cruzi [13] it was 900 nM.

On to `COc1ccc(-n2c[n+](-c3ccc(OC)cc3)c(Cc3ccccc3)c2-c2ccc(C)cc2)cc1`, for which half-maximal inhibition with Trypanosoma cruzi [1] (IC50) was put at 440 nM.

Take `c1ccc(-c2nc(-c3cccc4ccccc34)c[nH]2)cc1`: it took 35500 nM to reach half-maximal inhibition in the assay with Trypanosoma cruzi [14] (IC50). For `Cc1ccccc1OCC(=O)NCCc1nc2ccccc2[nH]1`, half-maximal inhibition at Cruzipain [9] (IC50) was put at 1600 nM. For the compound `c1ccc2c(c1)ccn1c[n+](C3CCCCC3)c(NC3CCCCC3)c21`, the IC50 with Trypanosoma cruzi [1] came out at 1020 nM. For `Cc1cccc(OCCNC(=O)n2ccnc2)c1`, the figures for the IC50 in the assay on Trypanosoma cruzi [15] and on Cruzipain [16] were 1100 nM and 1000 nM, respectively. The compound `CCOC(=O)Cc1[nH]c(-c2ccccc2)nc1-c1ccc(C)cc1` showed a 50% inhibitory concentration (IC50) in the assay with Trypanosoma cruzi [14] of 51100 nM. `Cn1c(OC(N)=O)nc2cc(Oc3cccc4ccccc34)c(Cl)cc21`: the inhibition in the assay on Trypanosoma cruzi [17] is 60%.

As for `Cn1cnc([N+](=O)[O-])c1-n1cc(C2CC2)nn1`, the IC50 in the assay with Trypanosoma cruzi [18] is 5400 nM. For `Cc1ccc(OCCn2c(CCNC(=O)C3CCCCC3)nc3ccccc32)cc1`, the IC50 with Trypanosoma cruzi [1] is 64000 nM; against Cruzipain [9], 2000 nM. Regarding `Oc1ccc(-n2c[n+](-c3ccc4ccccc4c3)c(Cc3ccccc3)c2-c2ccc(Cl)cc2)cc1`, half-maximal inhibition in the assay with Trypanosoma cruzi [1] (IC50) required 540 nM. Turning to `Sc1nc2cc(Cl)ccc2[nH]1`, the IC50 in the assay on Trypanosoma cruzi [14] came out at 320000 nM. `c1ccc(-c2ccc(Cn3cncc3CNc3ccc(-c4nc5ccccc5s4)c(-c4ccccc4)c3)cc2)cc1`: the IC50 with Trypanosoma cruzi [19] amounted to 20 nM. As for `Cc1cc(C)c(-n2cc[n+](-c3c(C)cc(C)cc3C)c2)c(C)c1`, inhibition with Trypanosoma cruzi [1] was half-maximal at 2000 nM (IC50).

Regarding `CSc1nc2cc(C(=O)Nc3ncc([N+](=O)[O-])s3)c(Cl)cc2n1C`, in [20], the IC50 worked out at 100000 nM. `CN(C)c1ccc(-c2nc(-c3ccccc3)c(-c3ccccc3)[nH]2)cc1` yielded an IC50 with Trypanosoma cruzi [21] of 960 nM. The compound `Cc1ccc(-c2c[nH]c(NC(=O)N3CCN(c4ccc(C(F)(F)F)cc4[N+](=O)[O-])CC3)n2)cc1` had an IC50 in the assay with Trypanosoma cruzi [6] of 2200 nM.

`O=C(COc1ccc2ccccc2c1Br)NCCc1nc2cc(Cl)ccc2[nH]1` returned an IC50 against Cruzipain [9] of 590 nM. Compound `Cn1c([N+](=O)[O-])cnc1C1=NOC2CCCCC12` (stereo unspecified) yielded an IC50 in the assay with Trypanosoma cruzi [1] of 33000 nM.
